Source: patent publication US9370189B2, “Controlling Pseudomonas aeruginosa persister cells with GM-CSF” (priority 2012, dated 2016)
“And” between values parts separate entries of the source, which are not always exact repeats. Identical values can stand only once.

What was measured:
[1] = test system: P. aeruginosa PAO1; experiment: Effect of GM-CSF on planktonic PAO1 cells (total viable cells and persisters) at exponential phase, alone and with antibiotic, CFU by drop plate; format: cell-based, Pseudomonas aeruginosa; details: for % change in avg. CFU/ml after adding factor + CIP / % change in avg. CFU/ml after adding factor + GEN / % change in avg. CFU/ml after adding factor + TET / % change in avg. CFU/ml after adding factor + TOB / average CFU/mL of persisters reduced by / average CFU/mL of total viable cells reduced by: planktonic PAO1; for % change in avg. CFU/ml after adding factor + CIP: 2.43 pg/mL GM-CSF with 200 μg/mL ciprofloxacin; for % change in avg. CFU/ml after adding factor + GEN: 2.43 pg/mL GM-CSF with 200 μg/mL gentamicin; for % change in avg. CFU/ml after adding factor + TET: 2.43 pg/mL GM-CSF with 200 μg/mL tetracycline; for % change in avg. CFU/ml after adding factor + TOB: 2.43 pg/mL GM-CSF with 200 μg/mL tobramycin; for average CFU/mL of persisters reduced by / average CFU/mL of total viable cells reduced by: reduction
Experimental: (§1) This Example describes the treatment of planktonic P. aeruginosa PAO1, PDO300 and Escherichia coli K12, with GM-CSF introduced directly or together with an antibiotic to test the synergy. All experiments were conducted with cells harvested from exponential phase subcultures with an optical density at 600 nm (OD600) of 0.3 to 0.4.
(§2) In brief, after preparing an overnight culture of the tested strain in 25 ml LB medium, a subculture was prepared with an OD600 of 0.01 in 50 mL LB medium. The subculture was incubated at 37° C. with shaking at 200 rpm for 3-4 h, till an OD600 of 0.3 to 0.4 was reached. The exponential phase subculture was then divided equally into two centrifuge tubes, each containing 25 mL of the subculture. The subcultures were washed twice with 0.85% NaCl buffer by vortexing and then centrifuging at 4° C., 8000 rpm for 10 min each time. The washed subcultures/cells were resuspended in 25 mL 0.85% NaCl buffer and vortexed gently for 1 min. One of the tubes of subculture was selected for isolation of persisters by adding 200 μg/mL ciprofloxacin (for PAO1 and PDO300 strains) or 100 μg/mL ampicillin (for E. coli K12 strain). After adding the antibiotic for persister isolation, the subculture was incubated at 37° C., shaking at 200 rpm for 3.5 h.
(§3) To test the effects of GM-CSF on viability of persisters, the second tube was used to quantify the total number of viable cells and 1 mL of the washed persister cells was divided into 6 microcentrifuge tubes; 3 were control and the other 3 were GM-CSF treatment samples. In the treatment samples, GM-CSF was added to a concentration of 2.43 pg/mL (or 0.17 pM), the same as found in healthy human bodies. The control samples were supplemented with the same concentration of PBS and BSA as present in 2.43 pg/mL (or 0.17 pM) GM-CSF samples.
(§4) After incubating at 37° C. for 1 h with shaking at 200 rpm, the samples were plated on LB agar plates (15 g/L bacto agar) using drop plate method. The agar plates were then incubated for 24 h at 37° C. to count the total number of persister cells and understand the effect of 0.17 pM GM-CSF on the viability of persister cells.
(§5) To test the synergy with antibiotics, the above samples were then incubated at 37° C. for 3.5 h with shaking at 200 rpm after adding the selected antibiotic. After 3.5 h, the CFU of samples was quantified in the same way to understand if there is any synergy between GM-CSF and antibiotic. Similar treatments were performed on the total population in exponential phase as well. Apart from exponential phase, the synergistic effects of GM-CSF with antibiotics on total viable cells and persisters were also evaluated at stationary phase but PBS buffer (pH=7.4) was used in the experiments instead of 0.85% NaCl solution. Moreover, the 1 h and 3.5 h treatments were performed as co-treatments.

[2] = test system: P. aeruginosa PDO300; experiment: Effect of GM-CSF on planktonic PDO300 cells (total viable cells and persisters) at exponential phase, alone and with antibiotic; format: cell-based, Pseudomonas aeruginosa; details: for % change in avg. CFU/mL by GM-CSF (compared to GM-CSF free control) With 50 μg/mL Cip / % change in avg. CFU/mL by GM-CSF (compared to GM-CSF free control) With 50 μg/mL Tet / % change in avg. CFU/mL by GM-CSF (compared to GM-CSF free control) With 50 μg/mL Tob / % change in avg. CFU/mL by GM-CSF (compared to GM-CSF free control) With 200 μg/mL Gen: PDO300 exponential phase, 0.17 pM GM-CSF; for % change in avg. CFU/ml after adding factor + CIP / % change in avg. CFU/ml after adding factor + TET / % change in avg. CFU/ml after adding factor + TOB / % change in avg. CFU/ml after adding factor + GEN / average CFU/ml of persisters reduced by / average CFU/ml of total viable cells reduced by: planktonic PDO300; for % change in avg. CFU/ml after adding factor + CIP: 2.43 pg/mL GM-CSF with 50 μg/mL ciprofloxacin; for % change in avg. CFU/ml after adding factor + TET: 2.43 pg/mL GM-CSF with 50 μg/mL tetracycline; for % change in avg. CFU/ml after adding factor + TOB: 2.43 pg/mL GM-CSF with 50 μg/mL tobramycin; for % change in avg. CFU/ml after adding factor + GEN: 2.43 pg/mL GM-CSF with 200 μg/ml gentamicin; for average CFU/ml of persisters reduced by / average CFU/ml of total viable cells reduced by: reduction
Experimental: as §1, §2, §3, §4, §5

[3] = test system: membrane fractions of P. aeruginosa; experiment: GM-CSF binding to non-denatured cellular fractions (non-denatured PAGE, Western blotting); design: species or system Pseudomonas aeruginosa; details: P. aeruginosa fractions incubated with GM-CSF, Western blotting (FIG. 22)
Experimental: Cell fractionation was done as described by George et al. (1986) with some modification. Briefly, cell pellets from stationary phase PAO1 were suspended in 1 ml of PBS buffer (pH7.2) containing 0.2 mg/mL lysozyme, protease inhibitor cocktail (Roche), chilled on ice, and sonicated (20 bursts, 10 s each at 70 W) with a Sonicator Q500 (Qsonica). The unbroken cells and debris were removed by centrifugation at 15,600×g for 5 min at 4° C. The supernatant was transferred to a 1.5 mL centrifuge tube, and the cell membranes were precipitated from the supernatant by centrifugation in a microcentrifuge at 15,600×g for 1 hour at 4° C. The supernatant was saved as cytoplasm fraction. To further separate inner and outer membrane proteins, the membrane pellets were thoroughly suspended in 0.1 ml of PBS buffer supplemented with 1% Sarkosyl by repeated pipetting. Following incubation for 30 minutes with intermittent mixing at room temperature, the suspension was centrifuged at 15,600×g for 1 hour at 4° C. […]
Different cellular components (30 μL) from P. aeruginosa were mixed with GM-CSF (20 ng) and incubated at room temperature for 2 hours. […] The separated samples were then subjected to Western blotting and detected by Human GM-CSF Monoclonal Antibody as described in whole cell binding assay.

[4] = 2.43 pg/ml GM-CSF with 200 μg/mL ciprofloxacin
[5] = 2.43 pg/ml GM-CSF with 200 μg/mL gentamicin
[6] = 2.43 pg/ml GM-CSF with 200 μg/mL tetracycline
[7] = 2.43 pg/ml GM-CSF with 200 μg/mL tobramycin
[8] = 2.43 pg/ml GM-CSF in the presence of 50 μg/mL ciprofloxacin
[9] = 2.43 pg/ml GM-CSF in the presence of 50 μg/mL tetracycline
[10] = 2.43 pg/ml GM-CSF in the presence of 50 μg/mL tobramycin
[11] = 2.43 pg/ml GM-CSF in the presence of 200 μg/mL gentamicin

Substance: GM-CSF: granulocyte macrophage-colony stimulating factor, a cytokine secreted by macrophages; recombinant human GM-CSF (R&D systems) in binding tests
- persister cells rendered sensitive to the antibiotic ciprofloxacin ([1]; P. aeruginosa persister cells, GM-CSF at 2.43 pg/mL): more than 97%
- % change in avg. CFU/ml after adding factor + CIP ([1]; persisters): −97.95%
- % change in avg. CFU/ml after adding factor + GEN ([1]; persisters): −59.31%
- % change in avg. CFU/ml after adding factor + TET ([1]; persisters): −65.66%
- % change in avg. CFU/ml after adding factor + TOB ([1]; persisters): −81.42%
- average CFU/mL of persisters reduced by [1, 4]: 97.95%
- average CFU/mL of total viable cells reduced by [1, 4]: 15.38%
- average CFU/mL of persisters reduced by [1, 5]: 59.31%
- average CFU/mL of total viable cells reduced by [1, 5]: 10.53%
- average CFU/mL of persisters reduced by [1, 6]: 65.66%
- average CFU/mL of total viable cells reduced by [1, 6]: 23.06%
- average CFU/mL of persisters reduced by [1, 7]: 81.42%
- average CFU/mL of total viable cells reduced by [1, 7]: 34.62%
- % change in avg. CFU/ml after adding factor ([1]; total viable cells, planktonic PAO1, exponential phase, 2.43 pg/mL GM-CSF alone, 1 h): −2.22% and −5.00% and −2.94% and −1.69%
- % change in avg. CFU/ml after adding factor + CIP ([1]; total viable cells): −15.38%
- % change in avg. CFU/ml after adding factor + GEN ([1]; total viable cells): −10.53%
- % change in avg. CFU/ml after adding factor + TET ([1]; total viable cells): −23.08%
- % change in avg. CFU/ml after adding factor + TOB ([1]; total viable cells): −34.62%
- % change in avg. CFU/mL by GM-CSF (compared to GM-CSF free control) With 50 μg/mL Cip ([2]; persisters): −22.2%
- % change in avg. CFU/mL by GM-CSF (compared to GM-CSF free control) With 50 μg/mL Tet ([2]; persisters): −46.2%
- % change in avg. CFU/mL by GM-CSF (compared to GM-CSF free control) With 50 μg/mL Tob ([2]; persisters): −80.0%
- % change in avg. CFU/mL by GM-CSF (compared to GM-CSF free control) With 200 μg/mL Gen ([2]; persisters): −50.0%
- % change in avg. CFU/ml after adding factor + CIP ([2]; persisters): −27.78%
- % change in avg. CFU/ml after adding factor + TET ([2]; persisters): −32.69%
- % change in avg. CFU/ml after adding factor + TOB ([2]; persisters): −75.86%
- % change in avg. CFU/ml after adding factor + GEN ([2]; persisters): −50.94%
- average CFU/ml of persisters reduced by [2, 8]: 27.78%
- average CFU/ml of total viable cells reduced by [2, 8]: 25.00%
- average CFU/ml of persisters reduced by [2, 9]: 32.69%
- average CFU/ml of total viable cells reduced by [2, 9]: 12.50%
- average CFU/ml of persisters reduced by [2, 10]: 75.86%
- average CFU/ml of total viable cells reduced by [2, 10]: 8.33%
- average CFU/ml of persisters reduced by [2, 11]: 50.94%
- average CFU/ml of total viable cells reduced by [2, 11]: 20.00%
- % change in avg. CFU/mL by GM-CSF (compared to GM-CSF free control) With 50 μg/mL Cip ([2]; total viable cells): −25.0%
- % change in avg. CFU/mL by GM-CSF (compared to GM-CSF free control) With 50 μg/mL Tet ([2]; total viable cells): −12.5%
- % change in avg. CFU/mL by GM-CSF (compared to GM-CSF free control) With 50 μg/mL Tob ([2]; total viable cells): −8.3%
- % change in avg. CFU/mL by GM-CSF (compared to GM-CSF free control) With 200 μg/mL Gen ([2]; total viable cells): −20.0%
- % change in avg. CFU/ml after adding factor + CIP ([2]; total viable cells): −25.00%
- % change in avg. CFU/ml after adding factor + TET ([2]; total viable cells): −12.50%
- % change in avg. CFU/ml after adding factor + TOB ([2]; total viable cells): −8.33%
- % change in avg. CFU/ml after adding factor + GEN ([2]; total viable cells): −20.00%
- binding to cellular components [3]: preferentially binds to membrane fractions
